{"source": "ChEMBL document CHEMBL4627391", "about": "“Bioactive Compounds from the Aerial Parts of Evolvulus linarioides” (J Nat Prod, 2020)", "key": {"J774 [1]": {"system": "J774", "assay": "Antiinflammatory activity in mouse J774 cells assessed as inhibition of LPS/IFNgamma-induced NO production incubated for 24 hrs by Griess method", "assay_type": "functional, cell-based", "conditions": "J774, 24 h"}, "J774 [2]": {"system": "J774", "assay": "Antiinflammatory activity in mouse J774 cells assessed as LPS/IFNgamma-induced IL-1beta level at 6.3 uM incubated for 24 hrs by ELISA (reference value: 9.6 to 26.1 pg/mg)", "assay_type": "functional"}, "J774 [3]": {"system": "J774", "assay": "Antiinflammatory activity in mouse J774 cells assessed as inhibition of LPS/IFNgamma-induced IL-1beta level incubated for 24 hrs by ELISA relative to control", "assay_type": "functional"}, "[4]": {"assay": "Cytotoxicity against mouse J774 cells assessed as reduction in cell viability after 72 hrs by Alamar Blue assay", "assay_type": "cell-based"}, "J774 [5]": {"system": "J774", "assay": "Antiinflammatory activity in mouse J774 cells assessed as LPS/IFNgamma-induced IL-1beta level at 100 uM incubated for 24 hrs by ELISA (reference value: 9.6 to 26.1 pg/mg)", "assay_type": "functional"}, "J774 [6]": {"system": "J774", "assay": "Antiinflammatory activity in mouse J774 cells assessed as LPS/IFNgamma-induced IL-1beta level at 25 uM incubated for 24 hrs by ELISA (reference value: 9.6 to 26.1 pg/mg)", "assay_type": "functional"}, "J774 [7]": {"system": "J774", "assay": "Antiinflammatory activity in mouse J774 cells assessed as inhibition of LPS/IFNgamma-induced IL-1beta level at 10 uM incubated for 24 hrs by ELISA relative to control", "assay_type": "functional", "conditions": "J774, 24 h"}}, "data": [{"smiles": "C/C=C(/C)C(=O)OC[C@@H](OC(C)=O)[C@@H](OC(=O)/C(C)=C\\C)C(O)(COC(=O)/C(C)=C\\C)COC(=O)/C(C)=C\\C", "values": [{"measurement": "IC50", "setting": "J774 [1]", "result": 34.2, "unit": "µM"}, {"measurement": "Activity", "setting": "J774 [2]", "result": 15.6, "unit": "pg/mg"}, {"measurement": "Imax", "setting": "J774 [3]", "result": 80.6, "unit": "%"}, {"measurement": "CC50 at 72 h", "setting": "[4]", "result": 206, "unit": "µM"}, {"measurement": "Activity", "setting": "J774 [5]", "result": 3.8, "unit": "pg/mg"}, {"measurement": "Activity", "setting": "J774 [6]", "result": 14.6, "unit": "pg/mg"}]}, {"smiles": "CC[C@@H](CO)C(=O)OC[C@@H]1O[C@H](OCc2cc(=O)c3c(O)cc(O)cc3o2)[C@@H](O)[C@H](O)[C@H]1O", "values": [{"measurement": "IC50", "setting": "J774 [1]", "result": 25.3, "unit": "µM"}, {"measurement": "Activity", "setting": "J774 [2]", "result": 8.4, "unit": "pg/mg"}, {"measurement": "Imax", "setting": "J774 [3]", "result": 96.2, "unit": "%"}, {"measurement": "CC50 at 72 h", "setting": "[4]", "result": 209, "unit": "µM"}, {"measurement": "Activity", "setting": "J774 [5]", "result": 0.3, "unit": "pg/mg"}, {"measurement": "Activity", "setting": "J774 [6]", "result": 8.6, "unit": "pg/mg"}]}, {"smiles": "C/C=C(/C)C(=O)OCC(O)(COC(=O)/C(C)=C\\C)[C@H](OC(=O)/C(C)=C\\C)[C@@H](COC(C)=O)OC(C)=O", "note": "(some centres not stated)", "values": [{"measurement": "IC50", "setting": "J774 [1]", "result": 28.2, "unit": "µM"}, {"measurement": "Activity", "setting": "J774 [2]", "result": 7.3, "unit": "pg/mg"}, {"measurement": "Imax", "setting": "J774 [3]", "result": 88.5, "unit": "%"}, {"measurement": "CC50 at 72 h", "setting": "[4]", "result": 198, "unit": "µM"}, {"measurement": "Activity", "setting": "J774 [5]", "result": 1.1, "unit": "pg/mg"}, {"measurement": "Activity", "setting": "J774 [6]", "result": 9.3, "unit": "pg/mg"}]}, {"smiles": "C=C1CC[C@@H]2[C@H](CC2(C)C)[C@@](O)(CO)CC[C@@H]1O", "values": [{"measurement": "IC50", "setting": "J774 [1]", "result": 17.8, "unit": "µM"}, {"measurement": "Activity", "setting": "J774 [2]", "result": 14.3, "unit": "pg/mg"}, {"measurement": "Imax", "setting": "J774 [3]", "result": 93, "unit": "%"}, {"measurement": "CC50 at 72 h", "setting": "[4]", "result": 193, "unit": "µM"}, {"measurement": "Activity", "setting": "J774 [5]", "result": 0.7, "unit": "pg/mg"}, {"measurement": "Activity", "setting": "J774 [6]", "result": 7, "unit": "pg/mg"}]}, {"smiles": "CC(=O)OC[C@@]1(O)CC[C@H]2O[C@@]2(C)CC[C@@H]2[C@@H]1CC2(C)C", "values": [{"measurement": "IC50", "setting": "J774 [1]", "result": 52.2, "unit": "µM"}, {"measurement": "Activity", "setting": "J774 [2]", "result": 10.2, "unit": "pg/mg"}, {"measurement": "Imax", "setting": "J774 [3]", "result": 75, "unit": "%"}, {"measurement": "CC50 at 72 h", "setting": "[4]", "result": 273, "unit": "µM"}, {"measurement": "Activity", "setting": "J774 [5]", "result": 2.4, "unit": "pg/mg"}, {"measurement": "Activity", "setting": "J774 [6]", "result": 6.5, "unit": "pg/mg"}]}, {"smiles": "C/C1=C/C[C@@H]2[C@H](CC2(C)C)[C@@](O)(CO)CC[C@@H]1O", "values": [{"measurement": "IC50", "setting": "J774 [1]", "result": 30.3, "unit": "µM"}, {"measurement": "Activity", "setting": "J774 [2]", "result": 28.6, "unit": "pg/mg"}, {"measurement": "Imax", "setting": "J774 [3]", "result": 92.5, "unit": "%"}, {"measurement": "CC50 at 72 h", "setting": "[4]", "result": 194, "unit": "µM"}, {"measurement": "Activity", "setting": "J774 [5]", "result": 1.5, "unit": "pg/mg"}, {"measurement": "Activity", "setting": "J774 [6]", "result": 14, "unit": "pg/mg"}]}, {"smiles": "O=c1cc(CO)oc2cc(O)cc(O)c12", "note": "[CNIDIMOL C]", "values": [{"measurement": "IC50", "setting": "J774 [1]", "result": 22.4, "unit": "µM"}, {"measurement": "Activity", "setting": "J774 [2]", "result": 15.7, "unit": "pg/mg"}, {"measurement": "Imax", "setting": "J774 [3]", "result": 72.7, "unit": "%"}, {"measurement": "CC50 at 72 h", "setting": "[4]", "result": 256, "unit": "µM"}, {"measurement": "Activity", "setting": "J774 [5]", "result": 3.9, "unit": "pg/mg"}, {"measurement": "Activity", "setting": "J774 [6]", "result": 10.5, "unit": "pg/mg"}]}, {"smiles": "C[C@@H]1C[C@H]2[C@@H]3CCC4=CC(=O)C=C[C@]4(C)[C@@]3(F)[C@@H](O)C[C@]2(C)[C@@]1(O)C(=O)CO", "note": "[DEXAMETHASONE]", "values": [{"measurement": "IC50", "setting": "J774 [1]", "result": 5.2, "unit": "µM"}, {"measurement": "inhibition at 10 µM", "setting": "J774 [7]", "result": 87.1, "unit": "%"}]}, {"smiles": "CN(C)c1ccc(C(=C2C=CC(=[N+](C)C)C=C2)c2ccc(N(C)C)cc2)cc1", "note": "[GENTIAN VIOLET]", "values": [{"measurement": "CC50 at 72 h", "setting": "[4]", "result": 0.8, "unit": "µM"}]}, {"smiles": "O=c1cc(CO[C@@H]2O[C@H](CO)[C@@H](O)[C@H](O)[C@H]2O)oc2cc(O)cc(O)c12", "note": "[MONNIERISIDE A]", "values": [{"measurement": "IC50", "setting": "J774 [1]", "result": 66.3, "unit": "µM"}, {"measurement": "Activity", "setting": "J774 [2]", "result": 14.6, "unit": "pg/mg"}, {"measurement": "Imax", "setting": "J774 [3]", "result": 85.5, "unit": "%"}, {"measurement": "CC50 at 72 h", "setting": "[4]", "result": 201, "unit": "µM"}, {"measurement": "Activity", "setting": "J774 [5]", "result": 2, "unit": "pg/mg"}, {"measurement": "Activity", "setting": "J774 [6]", "result": 9.1, "unit": "pg/mg"}]}, {"smiles": "Cc1cc(=O)c2c(O)cc(O[C@@H]3O[C@H](CO)[C@@H](O)[C@H](O)[C@H]3O)cc2o1", "note": "[UNDULATOSIDE A]", "values": [{"measurement": "IC50", "setting": "J774 [1]", "result": 51.2, "unit": "µM"}, {"measurement": "Activity", "setting": "J774 [2]", "result": 14.5, "unit": "pg/mg"}, {"measurement": "Imax", "setting": "J774 [3]", "result": 89.6, "unit": "%"}, {"measurement": "CC50 at 72 h", "setting": "[4]", "result": 191, "unit": "µM"}, {"measurement": "Activity", "setting": "J774 [5]", "result": 1.5, "unit": "pg/mg"}, {"measurement": "Activity", "setting": "J774 [6]", "result": 9.5, "unit": "pg/mg"}]}]}
